The values below come from the NIST ThermoML archive (doi:10.1016/j.fluid.2018.02.015).

A word on the mass density: it is the mass of a sample divided by its volume. As a reminder, the refractive index is the speed of light in vacuum divided by its phase velocity in the sample.

± gives the expanded uncertainty stated by the source.

The conditions of data set [1]: 99.9 kPa, Liquid, Vibrating tube method.
A short description of data set [2]: refractive index (Na D-line) (dimensionless). The settings on record: 99.9 kPa, Liquid, Standard Abbe refractometry.

In the case of `CCCCCCCCCC` [decane], the mass density in data set [1] (293.15 K) is recorded as 729.762 ± 0.33 kg/m3; in data set [1] (294.15 K), 728.496 ± 0.29 kg/m3; in data set [1] (295.15 K), 727.738 ± 0.26 kg/m3; in data set [1] (296.15 K) it was 726.983 ± 0.26 kg/m3; in data set [1] (297.15 K) it was 726.227 ± 0.26 kg/m3; in data set [1] (298.15 K) it was 725.467 ± 0.26 kg/m3. Further, the mass density in data set [1] (299.62 K) was 724.355 ± 0.26 kg/m3. The values for the refractive index in data set [2] (293.15 K) and in data set [2] (298.15 K) were 1.41196 ± 0.0005 and 1.40964 ± 0.0005, respectively.

As to `CCCCCCCCC` [nonane], the mass density in data set [1] (293.15 K) is recorded as 717.883 ± 0.33 kg/m3; in data set [1] (294.15 K) it was 716.601 ± 0.29 kg/m3; in data set [1] (295.15 K), 715.824 ± 0.26 kg/m3; in data set [1] (296.15 K) it was 715.045 ± 0.26 kg/m3; in data set [1] (297.15 K) it was 714.268 ± 0.25 kg/m3; in data set [1] (298.15 K), 713.689 ± 0.24 kg/m3. The refractive index in data set [2] (293.15 K) was found to be 1.40595 ± 0.00049; in data set [2] (298.15 K) it was 1.40329 ± 0.00049.

Turning to `CCCCCCCCCCC` [undecane], the mass density in data set [1] (293.15 K) is on record as 739.96 ± 0.29 kg/m3; in data set [1] (295.15 K) it was 737.96 ± 0.27 kg/m3; in data set [1] (297.15 K) it was 736.48 ± 0.25 kg/m3; in data set [1] (298.15 K) it was 735.73 ± 0.25 kg/m3; in data set [1] (299.75 K) it was 734.56 ± 0.25 kg/m3. Further, the figures for the refractive index in data set [2] (293.15 K) and in data set [2] (298.15 K) were 1.41726 ± 0.00049 and 1.41502 ± 0.00049, respectively.
